Reference: US20240408067A1, “SOLID STATE FORMS OF NIROGACESTAT SALTS” (TEVA PHARMACEUTICALS INTERNATIONAL GMBH, priority 2021, published 2024)
Counter-ions that a name gives are not always drawn. Values belong to the compound of their own block, whether it stands above or below them.

Assays:
Type in all cases: physicochemical
[1] = Thermal stability, heating up to 100° C. (XRPD); conditions: heating up to 100° C. for 30 minutes
Description: X-ray diffraction was performed on X-Ray powder diffractometer: Bruker D8 Advance; CuKα radiation (λ=1.5418 Å); Lynx eye detector; laboratory temperature 22-25° C.; PMMA specimen holder ring with silicon low background. Prior to analysis, the samples were gently ground by means of mortar and pestle in order to obtain a fine powder. The ground sample was adjusted into a cavity of the sample holder and the surface of the sample was smoothed by means of a cover glass. • Scan range: 2-40 degrees 2-theta; • Scan mode: continuous; • Step size: 0.05 degrees; • Time per step: 0.5 s; • Sample spin: 30 rpm; • Sample holder: PMMA specimen holder ring with silicon low background. Samples of Nirogacestat dihydrobromide Form NT1 and Nirogacestat hydrobromide Form NHBr1 were subjected to heating up to 100° C. for 30 minutes. XRPD analysis of the sample confirmed there to be no change in the starting material (Table 4): […]

[2] = Storage stability at different relative humidities, ambient temperature, 7 days (XRPD)
Description: (§1) X-ray diffraction was performed on X-Ray powder diffractometer: Bruker D8 Advance; CuKα radiation (λ=1.5418 Å); Lynx eye detector; laboratory temperature 22-25° C.; PMMA specimen holder ring with silicon low background. Prior to analysis, the samples were gently ground by means of mortar and pestle in order to obtain a fine powder. The ground sample was adjusted into a cavity of the sample holder and the surface of the sample was smoothed by means of a cover glass. • Scan range: 2-40 degrees 2-theta; • Scan mode: continuous; • Step size: 0.05 degrees; • Time per step: 0.5 s; • Sample spin: 30 rpm; • Sample holder: PMMA specimen holder ring with silicon low background. Samples of Nirogacestat dihydrobromide Form NT1 and Nirogacestat hydrobromide Form NHBr1 were subjected to conditions of different relative humidity at ambient temperature. XRPD analysis was performed on the samples after 7 days.

[3] = Grinding experiments (strong grinding, solvent drop grinding; XRPD); conditions: for XRPD analysis results, strong grinding: about 20 mg ground with a pestle for 2 minutes, sample alone; for Stability to solvent drop grinding: isopropanol or no solvent
Description: X-ray diffraction was performed on X-Ray powder diffractometer: Bruker D8 Advance; CuKα radiation (λ=1.5418 Å); Lynx eye detector; laboratory temperature 22-25° C.; PMMA specimen holder ring with silicon low background. Prior to analysis, the samples were gently ground by means of mortar and pestle in order to obtain a fine powder. The ground sample was adjusted into a cavity of the sample holder and the surface of the sample was smoothed by means of a cover glass. • Scan range: 2-40 degrees 2-theta; • Scan mode: continuous; • Step size: 0.05 degrees; • Time per step: 0.5 s; • Sample spin: 30 rpm; • Sample holder: PMMA specimen holder ring with silicon low background. […] […] In these experiments, about 20 mg of the sample is placed in a mortar and ground with a pestle for 2 minutes. The solvent, when used, was added to the crystalline material before grinding, in a volume of 10 microlitres. XRPD analysis performed on the sample after the grinding experiment, confirmed no change in the starting material (Table 3):

[4] = Stability under pressure of 2 tons
[5] = Storage stability at different relative humidity and temperatures, 6 months (XRPD); conditions: for XRPD analysis results, 25° C., 60% RH / XRPD analysis results, 40° C., 75% RH: 6 months
Description: as §1, with “NT1” for “NT1 and Nirogacestat hydrobromide Form NHBr1”, “different temperatures.” for “ambient temperature.”, “6 months.” for “7 days.”

[6] = listed as Form NT1 of Nirogacestat dihydrobromide, dihydrobromide salt
[7] = listed as Nirogacestat dihydrobromide Form NT1, dihydrobromide salt
[8] = listed as Nirogacestat dihydrobromide form NT1, dihydrobromide salt
[9] = listed as Form NT1, dihydrobromide salt
[10] = listed as Form NHBr1 of Nirogacestat hydrobromide, hydrobromide salt
[11] = listed as Nirogacestat hydrobromide Form NHBr1, hydrobromide salt

Result, heating 100° C., 30 minutes ([1]; dihydrobromide salt): Stable
Result, heating 100° C., 30 minutes [1, 6]: stable
Result, heating 100° C., 30 minutes [1, 7]: no change
Result, heating 100° C., 30 minutes [1, 8]: stable
XRPD analysis results, relative humidity 20% ([2]; 20% RH, ambient temperature, 7 days, listed as Form NT1, dihydrobromide salt): stable
XRPD analysis results, relative humidity 40% ([2]; 40% RH, ambient temperature, 7 days, listed as Form NT1, dihydrobromide salt): stable
XRPD analysis results, relative humidity 60% ([2]; 60% RH, ambient temperature, 7 days, listed as Form NT1, dihydrobromide salt): stable
XRPD analysis results, relative humidity 80% ([2]; 80% RH, ambient temperature, 7 days, listed as Form NT1, dihydrobromide salt): stable
Stability after exposure to high and low relative humidity ([2]; at least 7 days, summary of Table 1): stable
XRPD analysis results, strong grinding ([3]; dihydrobromide salt): No change
XRPD analysis results, strong grinding [3, 6]: stable
XRPD analysis results, strong grinding [3, 7]: no change
XRPD analysis results, strong grinding [3, 8]: stable
XRPD analysis results, solvent-drop grinding (ethanol) ([3]; ground 2 minutes, 10 microlitres solvent, ethanol): No change
XRPD analysis results, solvent-drop grinding (water) ([3]; ground 2 minutes, 10 microlitres solvent, water): No change
Stability to solvent drop grinding [3, 7]: no change
Stability to solvent drop grinding [3, 8]: stable
Resistance to polymorphic changes on grinding ([3]; summary of Table 3): resistant to polymorphic changes
Stability under pressure [4]: stable
XRPD analysis results, 25° C., 60% RH [5, 9]: stable
XRPD analysis results, 25° C., 60% RH [5, 7]: No change
XRPD analysis results, 40° C., 75% RH [5, 9]: stable
XRPD analysis results, 40° C., 75% RH [5, 7]: No change
Stability after exposure to high and low relative humidity at different temperatures ([5]; at least 6 months, summary of Table 2): stable
SMILES: CCC[C@H](N[C@H]1CCc2cc(F)cc(F)c2C1)C(=O)Nc1cn(C(C)(C)CNCC(C)(C)C)cn1 [Nirogacestat dihydrobromide salt]

Result, heating 100° C., 30 minutes ([1]; hydrobromide salt): Stable
Result, heating 100° C., 30 minutes [1, 10]: stable
Result, heating 100° C., 30 minutes [1, 11]: no change
XRPD analysis results, strong grinding ([3]; hydrobromide salt): No change
XRPD analysis results, strong grinding [3, 10]: stable
XRPD analysis results, strong grinding [3, 11]: no change
Stability to solvent drop grinding [3, 11]: no change
SMILES: CCC[C@H](N[C@H]1CCc2cc(F)cc(F)c2C1)C(=O)Nc1cn(C(C)(C)CNCC(C)(C)C)cn1 [Nirogacestat hydrobromide salt]
